This test concerns the target T1, ACE (Angiotensin-Converting Enzyme) of rat kidney preparations (Rattus norvegicus, UniProt P47820).
T1 construct: compound- or vehicle-dosed rat kidney preparations; from tissue; host or cells: kidney of male Sprague-Dawley rats
T1 sequence (P47820 36-1313): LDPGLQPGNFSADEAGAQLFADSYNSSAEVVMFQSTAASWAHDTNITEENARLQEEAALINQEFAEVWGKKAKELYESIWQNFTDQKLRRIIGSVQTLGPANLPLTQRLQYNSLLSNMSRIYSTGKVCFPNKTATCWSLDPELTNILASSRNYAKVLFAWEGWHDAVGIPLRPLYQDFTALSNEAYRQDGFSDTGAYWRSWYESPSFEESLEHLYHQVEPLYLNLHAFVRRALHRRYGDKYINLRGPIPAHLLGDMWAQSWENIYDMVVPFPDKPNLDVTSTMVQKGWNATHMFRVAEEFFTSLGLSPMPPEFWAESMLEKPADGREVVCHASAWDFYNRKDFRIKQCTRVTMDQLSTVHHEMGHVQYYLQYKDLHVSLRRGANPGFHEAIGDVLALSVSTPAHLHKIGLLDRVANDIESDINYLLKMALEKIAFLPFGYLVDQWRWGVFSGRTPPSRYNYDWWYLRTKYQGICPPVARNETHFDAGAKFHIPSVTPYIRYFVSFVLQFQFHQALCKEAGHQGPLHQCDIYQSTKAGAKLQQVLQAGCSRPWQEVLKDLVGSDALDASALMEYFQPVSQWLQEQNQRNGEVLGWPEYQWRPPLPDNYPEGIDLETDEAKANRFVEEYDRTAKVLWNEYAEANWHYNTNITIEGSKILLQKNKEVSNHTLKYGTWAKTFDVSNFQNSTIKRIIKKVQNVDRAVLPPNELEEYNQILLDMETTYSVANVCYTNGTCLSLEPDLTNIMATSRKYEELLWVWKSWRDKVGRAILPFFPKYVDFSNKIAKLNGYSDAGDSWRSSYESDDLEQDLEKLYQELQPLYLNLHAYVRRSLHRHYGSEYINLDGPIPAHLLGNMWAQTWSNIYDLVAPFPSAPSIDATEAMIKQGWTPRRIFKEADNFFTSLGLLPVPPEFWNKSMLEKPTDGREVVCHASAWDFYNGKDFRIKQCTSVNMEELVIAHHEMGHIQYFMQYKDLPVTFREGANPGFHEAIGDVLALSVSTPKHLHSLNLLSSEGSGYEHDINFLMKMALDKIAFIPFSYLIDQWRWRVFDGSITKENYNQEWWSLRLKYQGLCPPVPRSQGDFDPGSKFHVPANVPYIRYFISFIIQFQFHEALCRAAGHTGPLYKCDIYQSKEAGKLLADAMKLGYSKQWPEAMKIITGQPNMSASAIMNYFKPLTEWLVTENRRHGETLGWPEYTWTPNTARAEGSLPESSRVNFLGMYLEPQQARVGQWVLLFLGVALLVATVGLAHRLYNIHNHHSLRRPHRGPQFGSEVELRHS
The experiment in a line: Radiometric ACE activity assay on rat kidney preparations. It is filed as biochemical, rat (Sprague-Dawley). The conditions noted are these: 1 μM enalaprilat; substrate tritiated hippuryl-glycyl-glycine; compound- or vehicle-dosed rat kidney preparations.

Turning to `C[C@H](N[C@@H](CCc1ccccc1)C(=O)O)C(=O)N1CCC[C@H]1C(=O)O` [enalaprilat], the “inhibition of radioactive product formation” value is listed as “Complete inhibition”.

Values taken from patent US5880119A, “Mercaptoacetylamino 1,3,4,5-tetrahydro-benzo(C)azepin-2-one disulfide derivatives useful as inhibitors of enkephalinase and ACE” (Merrell Pharmaceuticals Inc., priority 1997, dated 1999).
